Data on 30 molecules can be found in patent publication US20230167073A1 (Teijin Pharma Limited, priority 2020, published 2023).

Structures are written as SMILES.

The target of the first experiment is T1, Human TRPC6 (Homo sapiens, UniProt Q9Y210).
T1 construct: expressed in transfected cells
T1 sequence (Q9Y210 1-931): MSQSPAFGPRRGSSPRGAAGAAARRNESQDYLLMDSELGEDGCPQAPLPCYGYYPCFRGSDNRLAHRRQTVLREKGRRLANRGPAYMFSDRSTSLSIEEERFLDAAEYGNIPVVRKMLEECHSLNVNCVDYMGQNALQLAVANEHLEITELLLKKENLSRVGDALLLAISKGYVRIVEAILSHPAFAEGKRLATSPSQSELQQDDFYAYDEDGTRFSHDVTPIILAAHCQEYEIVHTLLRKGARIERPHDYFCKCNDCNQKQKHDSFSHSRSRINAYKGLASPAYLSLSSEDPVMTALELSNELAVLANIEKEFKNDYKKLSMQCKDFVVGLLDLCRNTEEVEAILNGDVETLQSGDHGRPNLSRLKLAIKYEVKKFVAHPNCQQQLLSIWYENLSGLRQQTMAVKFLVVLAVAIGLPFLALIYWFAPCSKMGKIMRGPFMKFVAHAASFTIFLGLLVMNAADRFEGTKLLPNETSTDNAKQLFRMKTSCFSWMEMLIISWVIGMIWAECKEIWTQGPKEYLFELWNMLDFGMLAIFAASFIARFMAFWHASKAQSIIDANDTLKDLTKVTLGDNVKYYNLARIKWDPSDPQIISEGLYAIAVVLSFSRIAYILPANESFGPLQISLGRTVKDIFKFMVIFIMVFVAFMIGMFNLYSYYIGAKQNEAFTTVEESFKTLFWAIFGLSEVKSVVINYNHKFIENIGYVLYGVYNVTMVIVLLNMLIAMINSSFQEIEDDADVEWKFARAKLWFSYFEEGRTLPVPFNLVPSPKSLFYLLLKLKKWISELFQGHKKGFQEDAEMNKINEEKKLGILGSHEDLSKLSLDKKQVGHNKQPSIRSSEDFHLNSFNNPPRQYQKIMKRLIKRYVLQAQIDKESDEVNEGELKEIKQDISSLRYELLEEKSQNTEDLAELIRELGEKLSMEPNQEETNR
Description: Evaluation of TRPC6 channel inhibitory activity (1), FLIPR Calcium 5 Assay Kit, OAG stimulation (Compound Nos. 1-1293).
Conditions: not given
The format is cell-based. The gist of the method:
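Readout is pIC50 from four-parameter logistic fitting of inhibition of the OAG-evoked (30 μM final) fluorescence calcium signal. Human TRPC6 stable cells are dye-loaded with probenecid, and compound is applied 20 min ahead of agonist.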
Take `Cc1cc(Oc2cc(C#N)ccc2-c2ccc([C@H](O)CN)cn2)cc(N2C3CCC2COC3)n1` [compound 446, 4-[5-[(1S)-2-amino-1-hydroxyethyl]pyridin-2-yl]-3-[2-methyl-6-(3-oxa-8-azabicyclo[3.2.1]octan-8-yl)pyridin-4-yl]oxybenzonitrile]: the IC50 was less than 10 nM.

Staying with this experiment, now noted: Human TRPC6 stably-expressing cells, OAG 30 μM, FLIPR Calcium 5 Assay Kit; read-out: Inhibitory activity (pIC50 class) (converted).
With `COC(=O)C(N)c1ccc(-c2ccc(C#N)cc2Oc2cc(C)nc(N3CCOCC3)c2)nc1` (stereo not drawn) [compound 409, methyl 2-amino-2-[6-[4-cyano-2-(2-methyl-6-morpholin-4-ylpyridin-4-yl)oxyphenyl]pyridin-3-yl]acetate], the IC50 is 10 to 1000 nM.

Consider `Cc1nc(Oc2cc(C#N)ccc2-c2ncc(CN)cn2)cc(N2CCC[C@H]2C#N)n1` [compound 675, (2S)-1-[6-[2-[5-(aminomethyl)pyrimidin-2-yl]-5-cyanophenoxy]-2-methylpyrimidin-4-yl]pyrrolidine-2-carbonitrile], for which the IC50 is 10 to 1000 nM.

Turning to `Cn1nc(C(C)(C)C)cc1Oc1cc(C#N)ccc1-c1ccc([C@H](O)CN)cn1` [compound 405, 4-[5-[(1S)-2-amino-1-hydroxyethyl]pyridin-2-yl]-3-(5-tert-butyl-2-methylpyrazol-3-yl)oxybenzonitrile], the IC50 was less than 10 nM.

Turning to `Cc1nc(C2CCOCC2)cn1Cc1cc(C#N)ccc1-c1ccc([C@H](O)CN)cn1` [compound 1165], the IC50 was more than 1000 nM.

For the molecule `COC(CN)c1ccc(-c2ccc(C#N)cc2Oc2cc(N3CCOCC3)nc(C)n2)cc1` (stereo not drawn) [Compound 11, 4-[4-(2-Amino-1-methoxyethyl)phenyl]-3-(2-methyl-6-morpholin-4-ylpyrimidin-4-yl)oxybenzonitrile], the IC50 was less than 10 nM.

Consider `CCN(CC)c1cc(Oc2cc(C#N)ccc2-c2ncc(CN)cn2)n(C)n1` [compound 655, 4-[5-(aminomethyl)pyrimidin-2-yl]-3-[5-(diethylamino)-2-methylpyrazol-3-yl]oxybenzonitrile], for which the IC50 is less than 10 nM.

On to `Cc1nc(OCCCF)cc(Oc2cc(C#N)ccc2-c2ccc(CCN)cc2)n1` [Compound 36, 4-[4-(2-aminoethyl)phenyl]-3-[6-(3-fluoropropoxy)-2-methylpyrimidin-4-yl]oxybenzonitrile], for which the IC50 was 10 to 1000 nM.

As to `Cc1nc(OCC(F)F)cc(Oc2cc(C#N)ccc2-c2ncc(CCN)cn2)n1` [compound 891, 4-[5-(2-aminoethyl)pyrimidin-2-yl]-3-[6-(2,2-difluoroethoxy)-2-methylpyrimidin-4-yl]oxybenzonitrile], the IC50 is 10 to 1000 nM.

As for `COCCOc1cc(Oc2cc(C#N)ccc2-c2ccc(CCN)cc2)nc(C)n1` [Compound 48, 4-[4-(2-aminoethyl)phenyl]-3-[6-(2-methoxyethoxy)-2-methylpyrimidin-4-yl]oxybenzonitrile], the IC50 was 10 to 1000 nM.

`Cc1nc(Oc2cc(C#N)ccc2-c2ccc(C(CN)c3cccc(F)c3)cc2)cc(N2CCOCC2)n1` (stereo not drawn) [Compound 61, 4-[4-[2-amino-1-(3-fluorophenyl)ethyl]phenyl]-3-(2-methyl-6-morpholin-4-ylpyrimidin-4-yl)oxybenzonitrile]: the IC50 is more than 1000 nM.

As for `Cn1nc(-c2ccccn2)cc1Oc1cc(C#N)cnc1-c1ncc(CN)cn1` [compound 1287, 6-[5-(aminomethyl)pyrimidin-2-yl]-5-(2-methyl-5-pyridin-2-ylpyrazol-3-yl)oxypyridine-3-carbonitrile], the IC50 is more than 1000 nM.

As to `Cc1nc(Oc2cc(C#N)ccc2-c2ccc(C(CN)c3ccoc3)cc2)cc(N2CCOCC2)n1` (stereo not drawn) [Compound 73, 4-[4-[2-amino-1-(furan-3-yl)ethyl]phenyl]-3-(2-methyl-6-morpholin-4-ylpyrimidin-4-yl)oxybenzonitrile], the IC50 was 10 to 1000 nM.

For the molecule `Cn1nc(C2CC2)cc1Oc1cc(C#N)ccc1-c1cc(C(O)CN)ccn1` (stereo not drawn) [compound 519, 4-[4-(2-amino-1-hydroxyethyl)pyridin-2-yl]-3-(5-cyclopropyl-2-methylpyrazol-3-yl)oxybenzonitrile], the IC50 is 10 to 1000 nM.

`N#Cc1ccc(-c2ccc(CCN)cc2)c(Cn2ccc(-c3ccccc3)n2)c1` [compound 1112, 4-[4-(2-aminoethyl)phenyl]-3-[(3-phenylpyrazol-1-yl)methyl]benzonitrile]: the IC50 is more than 1000 nM.

With `CCCCc1cc(Oc2cc(C#N)ccc2-c2ncc(CCN)cn2)n(C)n1` [compound 319, 4-[5-(2-aminoethyl)pyrimidin-2-yl]-3-(5-butyl-2-methylpyrazol-3-yl)oxybenzonitrile], the IC50 is less than 10 nM.

For `Cn1nc(C(F)(F)F)cc1Oc1cc(C#N)ccc1-c1ncc(CCN)cn1` [compound 812, 4-[5-(2-aminoethyl)pyrimidin-2-yl]-3-[2-methyl-5-(tritluoromethyl)pyrazol-3-yl]oxybenzonitrile], the IC50 was less than 10 nM.

For `Cc1cc(Oc2cc(C#N)ccc2-c2ncc(CCN)cn2)cc(N2CCO[C@@H](C(F)F)C2)n1` [compound 444, 4-[5-(2-aminoethyl)pyrimidin-2-yl]-3-[2-[(2R)-2-(difluoromethyl)morpholin-4-yl]-6-methylpyridin-4-yl]oxybenzonitrile], the IC50 was less than 10 nM.

Regarding `N#Cc1ccc(-c2ccc(C(O)CN)cc2)c(Cn2cnc(-c3ccccc3)c2)c1` (stereo not drawn) [compound 1129, 4-[4-(2-amino-1-hydroxyethyl)phenyl]-3-[(4-phenylimidazol-1-yl)methyl]benzonitrile], the IC50 was less than 10 nM.

For the molecule `CC(C)n1cc(Oc2cc(F)ccc2-c2ncc(CCN)cn2)cn1` [compound 981, 2-[2-[4-fluoro-2-(1-propan-2-ylpyrazol-4-yl)oxyphenyl]pyrimidin-5-yl]ethanamine], the IC50 was 10 to 1000 nM.

For `N#Cc1ccc(-c2ncc(CCN)cn2)c(C(=O)c2cnc(C(F)(F)F)s2)c1` [compound 1039, 4-[5-(2-aminoethyl)pyrimidin-2-yl]-3-[2-(trifluoromethyl)-1,3-thiazole-5-carbonyl]benzonitrile], the IC50 was 10 to 1000 nM.

As to `CN(C)C(=O)CNC(C)(C)Cc1ccc(-c2ccc(C#N)cc2Oc2cc(-c3ccccn3)nn2C)nc1` [compound 839, 2-[[1-[6-[4-cyano-2-(2-methyl-5-pyridin-2-ylpyrazol-3-yl)oxyphenyl]pyridin-3-yl]-2-methylpropan-2-yl]amino]-N,N-dimethylacetamide], the IC50 is more than 1000 nM.

Consider `N#Cc1ccc(-c2ccc(CCN)cc2)c(Oc2cnnc(-c3ccccc3)c2)c1` [Compound 69, 4-[4-(2-aminoethyl)phenyl]-3-(6-phenylpyridazin-4-yl)oxybenzonitrile], for which the IC50 was less than 10 nM.

`Cc1cc(Oc2cc(C#N)ccc2-c2ccn(CCN)c(=O)c2)cc(N2CCOCC2)n1` [compound 566, 4-[1-(2-aminoethyl)-2-oxopyridin-4-yl]-3-(2-methyl-6-morpholin-4-ylpyridin-4-yl)oxybenzonitrile]: the IC50 is 10 to 1000 nM.

Turning to `Cc1cc(Oc2cc(C#N)ccc2-c2ccc(C(F)(F)CN)cn2)cc(N2CCOCC2)n1` [compound 307, 4-[5-(2-amino-1,1-difluoroethyl)pyridin-2-yl]-3-(2-methyl-6-morpholin-4-ylpyridin-4-yl)oxybenzonitrile], the IC50 was 10 to 1000 nM.

Regarding `Cc1nc(Oc2cc(C#N)ccc2-c2ncc(CCN)cn2)cc(N2CCCCC2)n1` [compound 447, 4-[5-(2-aminoethyl)pyrimidin-2-yl]-3-(2-methyl-6-piperidin-1-ylpyrimidin-4-yl)oxybenzonitrile], the IC50 is less than 10 nM.

With `Cn1nc(N2CCOCC2)cc1Oc1cc(C#N)ccc1-c1ncc(CCN)cn1` [compound 771, 4-[5-(2-aminoethyl)pyrimidin-2-yl]-3-(2-methyl-5-morpholin-4-ylpyrazol-3-yl)oxybenzonitrile], the IC50 was 10 to 1000 nM.

In the case of `Cc1nc(OCC(F)(F)F)cc(Oc2cc(C#N)ccc2-n2cc([C@@H](O)CN)cn2)n1` [Compound 268, 4-[4-[(1R)-2-amino-1-hydroxyethyl]pyrazol-1-yl]-3-[2-methyl-6-(2,2,2-trifluoroethoxy)pyrimidin-4-yl]oxybenzonitrile], the IC50 is 10 to 1000 nM.

For `Cc1ccccc1-c1cc(Oc2cc(C#N)ccc2-c2ccc([C@@H](O)CN)cn2)n(C)n1` [compound 378, 4-[5-[(1R)-2-amino-1-hydroxyethyl]pyridin-2-yl]-3-[2-methyl-5-(2-methylphenyl)pyrazol-3-yl]oxybenzonitrile], the IC50 is less than 10 nM.

In the case of `N#Cc1ccc(-c2ccc(CCN)cn2)c(Oc2cc(N3CCOCC3)cnn2)c1` [Compound 91, 4-[5-(2-aminoethyl)pyridin-2-yl]-3-(5-morpholin-4-ylpyridazin-3-yl)oxybenzonitrile], the IC50 was more than 1000 nM.
